Data from PMC5945669, “Reversible glycosidic switch for secure delivery of molecular nanocargos” (Nature Communications, 2018).

What was measured:
[1] = Octanol-to-water partitioning; conditions: for partitioning behavior in octanol-water two-phase system: 1-octanol / citric acid buffer pH 5 (Fig. 2f), in words; for Log P (partition coefficient): 24 h, pH 5
Description: Samples from the supernatant were analyzed by HPLC to determine water solubility. The partitioning of compounds between octanol and water was determined by adding 2.5 nmol of each substance to an equal volume (200 µL) mixture of octanol and 0.25 M citric acid, pH 5 and shaking for 24 h to permit equilibration between the two phases. The tubes were then centrifuged at 20,000 × g for 30 min at 20 °C and 20 μL samples from each phase were analyzed by HPLC. The partition coefficient is defined by the following equation, where “C” is the concentration of compound in each phase. A partition coefficient equal to 0 means that the compound equally distributes between each phase.

[2] = parental hydrophobic drugs; cited from earlier work
[3] = Regeneration of parental drug 9AC within tumors (tumor vs blood); type: in vivo, NOD/SCID mice; conditions: female, NOD/SCID, mouse, intravenous, printed in picture of Fig. 9b, read-out: 9AC per gram of tissue, Tumor vs Blood
Description: Twelve to 16 week old female NOD/SCID immunodeficient mice were inoculated with 10^7 MDA-MB468 human breast cancer cells. When tumors reached ~100 mm^3, the mice were intravenously injected with 14.5 µmol kg^−1 (10 mg kg^−1) of liposomal 9AC-G^W (based on the drug concentration). Blood was collected in Na-heparinized hematocrit tubes from the tail vein and mice were then killed to harvest the tumor tissue. Blood samples (100 µL) were centrifuged at 2500 × g for 3 min and the plasma was collected for analysis. Tumor tissue was homogenized in 3 mL RIPA buffer (25 mM Tris-HCl pH 7.5, 150 mM NaCl, 0.1% SDS, 0.5% Na-deoxycholate, 1% Triton X-100) on a IKA Ultra-Turrax® TP 18/10 homogenizer. The amount of 9AC was determined in blood and tumor samples by HPLC and normalized to amounts per gram of tissue, according to the relationship 1 mL of whole blood = 1.06 g of weight.

[4] = test system: MDA-MB-468 human breast tumors; test: In vivo anticancer activity, subcutaneous human breast cancer xenograft; set-up: species or system NOD/SCID mice; conditions: four weekly injections
Description: MDA-MB468 human breast cancer cells (10^7 cells in 100 µL PBS) were injected subcutaneously in twelve to sixteen-week old female NOD/SCID immunodeficient mice. When tumors reached sizes ranging from 75 to 100 mm^3, groups of seven mice were treated at weekly intervals for four times with intravenous injections of 9AC at 5.5 µmol kg^−1 (2 mg kg^−1), 9AC-G^W at 14.5 µmol kg^−1 (10 mg kg^−1), liposomal 9AC-G^W at 14.5 µmol kg^−1 (10 mg kg^−1), or doxorubicin liposomes (Doxisome, 1.8 µmol kg^−1 equivalent to 1 mg kg^−1 and 5.5 µmol kg^−1 equivalent to 3 mg kg^−1). Tumor volumes, body weights, and survival were monitored for more than 2 months after treatments started. […] The tumor volume was calculated according to the following formula:2 TumorVolume=Length×Depth×Height/2

[5] = Stability and conversion of the lipid-soluble switch in liposomal external and internal buffers; type: physicochemical; conditions: 75 °C
Description: Error bars, SD, n = 3. c Kinetics of the conversion of 9AC-G^W to lipid-soluble 9AC-G^L, d BQC-G^W to BQC-G^L and e 4MU-G^W to 4MU-G^L in acidic methanol at 62 °C. The HPLC chromatograms show samples at 0, 15, 30, and 60 min. RFU relative fluorescent units. f Partition coefficients (Log scale) between 50 mM citric acid buffer pH 5 and 1-octanol of the parental compounds compared to their respective -G^W and -G^L forms. Error bars: SD, n = 5. g Stability of 9AC-G^L in liposomal external buffer (50 mM citric acid, 250 mM sodium sulfate, pH 5) at 75 °C. Error bars: SD, n = 3. h Conversion of 9AC-G^L to 9AC-G^W in liposomal internal buffer (50 mM HEPES, 250 mM calcium acetate, pH 8.5) at 75 °C. Error bars: SD, n = 3.
Water-soluble 9AC-G^W was obtained by incubating 50 µg 9AC-G^L in 500 µL of liposomal internal buffer at pH 8.5. After 1 h at 65 °C the reaction was analyzed by HPLC to assess the reformation of 9AC-G^W. A 20 µL sample of 9AC-G^W was then transferred to 1 mL of reaction buffer (100 mM sodium acetate, 100 ng mL^−1 bovine serum albumin, pH 4.5) containing 1 µg of purified recombinant human beta-glucuronidase[56] for 1 h at 37 °C to cleave the cue-responsive trigger and generate 9AC. Drug regeneration was also examined in a biological system where 10^5 cells (MDA-MB468, HCC36, and HCC36 anti-PEG) were seeded per well in a 96 well-plate in triplicate and incubated overnight. […]

[6] = Pharmacokinetics in plasma after i.v. injection; set-up: species or system NOD/SCID female mice; conditions: female, NOD/SCID, mouse, in vivo, iv, 35 umol/kg
Description: 9AC-G^W was dissolved at 10.9 µmol mL^−1 (7.5 mg mL^−1) in 25 mM phosphate buffer pH 6.5 just before use. 9AC-G^W liposomes were concentrated by successive centrifugations at 5000, 10,000, and 20,000 × g for 30 min at 4 °C. After each centrifugation, the pellet was collected and resuspended in a smaller volume of buffer. The concentration of liposomal 9AC-G^W achieved through this method before injection was 5.1 µmol mL^−1 (3.5 mg mL^−1) based on 9AC-G^W. Each preparation (free 9AC-G^W and liposomal 9AC-G^W) was injected intravenously in the tail vein of 12–16 week old NOD/SCID female mice at 35 µmol kg^−1 (25 mg kg^−1) using three mice per group. Blood samples were collected at 5 min, 30 min, 60 min, 2 h, and 3 h for free 9AC-G^W, in addition to 6, 12, 26, 48, 148 h for 9AC-G^W liposomes with Na-heparinized hematocrit tubes from the tail vein. The plasma was separated from the red blood cells by centrifugation at 2500 × g for 3 min. […] The final results are expressed as 9AC-G^W plasma concentration in µmol L^−1 (µM). Biological half-lives were determined by an exponential two phase decay curve fit on GraphPad prism (GraphPad software, Inc.).

[7] = Water solubility (saturation, HPLC); type: physicochemical; conditions: 24 h
[8] = in animals; no reference given; cited from earlier work
[9] = PBS pH 7.4, after 2 hr; no reference given; cited from earlier work
[10] = set-up: method as in earlier work; conditions: rats 50, 250, 500 mg/kg i.p. daily; dogs 50 mg/kg i.v.; ref 6 of peer review file; cited from earlier work

In the case of `Cc1cc(=O)oc2cc(O[C@@H]3O[C@H](C(=O)O)[C@@H](O)[C@H](O)[C@H]3O)ccc12` [4MU-G^W, 4-methylumbelliferyl-β-D-glucuronide, reference compound], the “partitioning behavior in octanol-water two-phase system” value (shortened to “partitioning behavior”) [1] is reported as “partitioned in the aqueous phase” and the “partitioning behavior” value ([1]; listed as 4MU-G^L) is reported as “slightly lipophilic behavior”.

In the case of `CC[C@@]1(O)C(=O)OCc2c1cc1n(c2=O)Cc2cc3c(N)cccc3nc2-1` [9AC, 9-aminocamptothecin], the water solubility [2] is listed as under 50 µg/mL, the Kp at 24 h ([3]; 24 h post-injection) is listed as over 30 and the Kp at 72 h ([3]; 72 h post-injection) is listed as over 12. The “effect on tumor growth compared with TBS” value ([4]; 5.5 µmol kg^−1 i.v.) was “minimal effect on tumor growth”.

With `CCC1(O)C(=O)OCc2c1cc1n(c2=O)Cc2cc3c(NC(=O)OCc4ccc(OC5OC(C(=O)O)C(O)C(O)C5O)cc4)cccc3nc2-1` [9AC-G^W, 9-aminocamptothecin-β-D-glucuronide] the “stability in liposomal external buffer” value ([5]; pH 5 (50 mM citric acid, 250 mM sodium sulfate)) was “stable”, the “conversion in liposomal internal buffer” value ([5]; pH 8.5 (50 mM HEPES, 250 mM calcium acetate)) was “rapidly converted to the highly water-soluble 9AC-G^W” and the half-life ([6]; initial half-life) was 9.3 min. The half-life ([6]; terminal half-life) was 38.6 min, the “effect on tumor growth compared with TBS” value ([4]; 14.5 µmol kg^−1 i.v.) was “minimal effect on tumor growth” and the “water solubility, fold greater than the parental hydrophobic drug” value [7] was 680 fold. For the same compound, the “partitioning behavior” value [1] was “partitioned in the aqueous phase”, the “partitioning behavior” value ([1]; listed as 9AC-G^L) was “slightly lipophilic behavior” and the “Log P (partition coefficient)” value [1] was ~ 1.1.

For `CCC1(O)C(=O)OCc2c1cc1n(c2=O)Cc2c-1nc1ccc(O)c3c1c2CCC3` (centres unmarked) [BQC, 5,6-dihydro-4H-benzo[de]quinoline-camptothecin, reference compound], the “Water solubility, fold difference between Parental and -G^W Switch” value [7] was over 3700 ×.

For `CCC1(O)C(=O)OCc2c1cc1n(c2=O)Cc2c-1nc1ccc(OCc3ccc(OC4OC(C(=O)O)C(O)C(O)C4O)c([N+](=O)[O-])c3)c3c1c2CCC3` [BQC-G^W, 5,6-dihydro-4H-benzo[de]quinoline-camptothecin-β-D-glucuronide], the “water solubility, fold greater than the parental hydrophobic drug” value [7] was 3700 fold, the “partitioning behavior” value [1] was “partitioned in the aqueous phase” and the “partitioning behavior” value ([1]; listed as BQC-G^L) was “slightly lipophilic behavior”. For the same compound, the “Log P (partition coefficient)” value [1] was ~ 1.3.

For `OCc1ccccc1` [Benzyl alcohol, benzyl alcohol], the LD50 dose [8] is given as “greater than 1 g per kg”.

In the case of `CC[C@@]1(O)C(=O)OCc2c1cc1n(c2=O)Cc2cc3ccccc3nc2-1` [CPT], the activity remaining [9] is listed as 10%.

For `O=C[C@H](O)[C@@H](O)[C@H](O)[C@H](O)C(=O)O` [D-glucuronic acid], the “functional or morphological changes after one-month treatment” value [10] is given as “induced neither f unctional nor”.
